According to PubChem BioAssay (NCI):
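Exposure lasted 48 hours, with cells grown in 96-well plates and compounds tested at five concentrations. TGI: total growth inhibition.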

Key:
Assay in all cases: NCI-60 cell line screen, 48 h
786-0 renal = system: 786-0 renal
A498 renal = system: A498 renal
A549 NSCLC = system: A549 NSCLC
ACHN renal = system: ACHN renal
CCRF-CEM leukemia = system: CCRF-CEM leukemia
COLO 205 colon = system: COLO 205 colon
DLD-1 colon = system: DLD-1 colon
DMS 114 small cell lung = system: DMS 114 small cell lung
DMS 273 small cell lung = system: DMS 273 small cell lung
EKVX NSCLC = system: EKVX NSCLC
HCC-2998 colon = system: HCC-2998 colon
HCT-116 colon = system: HCT-116 colon
HCT-15 colon = system: HCT-15 colon
HL-60(TB) leukemia = system: HL-60(TB) leukemia
HOP-18 NSCLC = system: HOP-18 NSCLC
HOP-62 NSCLC = system: HOP-62 NSCLC
HOP-92 NSCLC = system: HOP-92 NSCLC
HT29 colon = system: HT29 colon
IGROV1 ovarian = system: IGROV1 ovarian
K-562 leukemia = system: K-562 leukemia
KM12 colon = system: KM12 colon
KM20L2 colon = system: KM20L2 colon
LOX IMVI melanoma = system: LOX IMVI melanoma
LXFL 529 NSCLC = system: LXFL 529 NSCLC
M14 melanoma = system: M14 melanoma
M19-MEL melanoma = system: M19-MEL melanoma
MALME-3M melanoma = system: MALME-3M melanoma
MOLT-4 leukemia = system: MOLT-4 leukemia
NCI-H23 lung = system: NCI-H23 lung
NCI-H460 lung = system: NCI-H460 lung
NCI-H522 lung = system: NCI-H522 lung
OVCAR-3 ovarian = system: OVCAR-3 ovarian
OVCAR-4 ovarian = system: OVCAR-4 ovarian
OVCAR-5 ovarian = system: OVCAR-5 ovarian
OVCAR-8 ovarian = system: OVCAR-8 ovarian
RPMI-8226 leukemia = system: RPMI-8226 leukemia
RXF 393 renal = system: RXF 393 renal
SF-268 CNS = system: SF-268 CNS
SF-295 CNS = system: SF-295 CNS
SF-539 CNS = system: SF-539 CNS
SK-MEL-2 melanoma = system: SK-MEL-2 melanoma
SK-MEL-28 melanoma = system: SK-MEL-28 melanoma
SK-OV-3 ovarian = system: SK-OV-3 ovarian
SN12C renal = system: SN12C renal
SNB-19 CNS = system: SNB-19 CNS
SNB-75 CNS = system: SNB-75 CNS
SNB-78 CNS = system: SNB-78 CNS
SW-620 colon = system: SW-620 colon
TK-10 renal = system: TK-10 renal
U251 CNS = system: U251 CNS
UACC-257 melanoma = system: UACC-257 melanoma
UACC-62 melanoma = system: UACC-62 melanoma
UO-31 renal = system: UO-31 renal
CAKI-1 renal = system: CAKI-1 renal
NCI-H226 lung = system: NCI-H226 lung
SK-MEL-5 melanoma = system: SK-MEL-5 melanoma
SR leukemia = system: SR leukemia

Measured: TGI

COc1cc(C(=O)NO)ccc1O
> 100 µM: 786-0 renal | A498 renal | A549 NSCLC | ACHN renal | CCRF-CEM leukemia | COLO 205 colon | DLD-1 colon | DMS 114 small cell lung | DMS 273 small cell lung | EKVX NSCLC | HCC-2998 colon | HCT-116 colon | HCT-15 colon | HL-60(TB) leukemia | HOP-18 NSCLC | HOP-62 NSCLC | HOP-92 NSCLC | HT29 colon | IGROV1 ovarian | K-562 leukemia | KM12 colon | KM20L2 colon | LOX IMVI melanoma | LXFL 529 NSCLC | M14 melanoma | M19-MEL melanoma | MALME-3M melanoma | MOLT-4 leukemia | NCI-H23 lung | NCI-H460 lung | NCI-H522 lung | OVCAR-3 ovarian | OVCAR-4 ovarian | OVCAR-5 ovarian | OVCAR-8 ovarian | RPMI-8226 leukemia | RXF 393 renal | SF-268 CNS | SF-295 CNS | SF-539 CNS | SK-MEL-2 melanoma | SK-MEL-28 melanoma | SK-OV-3 ovarian | SN12C renal | SNB-19 CNS | SNB-75 CNS | SNB-78 CNS | SW-620 colon | TK-10 renal | U251 CNS | UACC-257 melanoma | UACC-62 melanoma | UO-31 renal

Cc1ccccc1-n1c(=O)sc2c(=O)n(-c3ccccc3)c(=S)[nH]c21
> 100 µM: 786-0 renal | A498 renal | A549 NSCLC | ACHN renal | CAKI-1 renal | CCRF-CEM leukemia | COLO 205 colon | DLD-1 colon | DMS 114 small cell lung | DMS 273 small cell lung | EKVX NSCLC | HCC-2998 colon | HCT-116 colon | HCT-15 colon | HL-60(TB) leukemia | HOP-18 NSCLC | HOP-62 NSCLC | HOP-92 NSCLC | HT29 colon | IGROV1 ovarian | K-562 leukemia | KM12 colon | KM20L2 colon | LXFL 529 NSCLC | M14 melanoma | M19-MEL melanoma | MALME-3M melanoma | MOLT-4 leukemia | NCI-H226 lung | NCI-H23 lung | NCI-H460 lung | NCI-H522 lung | OVCAR-3 ovarian | OVCAR-4 ovarian | OVCAR-5 ovarian | OVCAR-8 ovarian | RPMI-8226 leukemia | RXF 393 renal | SF-268 CNS | SF-295 CNS | SF-539 CNS | SK-MEL-2 melanoma | SK-MEL-28 melanoma | SK-MEL-5 melanoma | SK-OV-3 ovarian | SN12C renal | SNB-19 CNS | SNB-75 CNS | SNB-78 CNS | SR leukemia | SW-620 colon | U251 CNS | UACC-257 melanoma | UACC-62 melanoma | UO-31 renal
